Test results from patent US20120115804A1, “COMPOSITIONS AND METHODS FOR CHARACTERIZING AND TREATING NEOPLASIA” (The John Hopkins University, priority 2009, published 2012).
Entries after “also recorded” stand apart in the source; their conditions may differ. Read-outs that look alike come from different tables or passages of the source.

Columns and labels:
[1] = test system: breast cancer cell lines (HS578T, 21PT, MCF7, and T47D) and the immortalized normal breast epithelial cell line HBL100; conditions: 96 hours, Calcitriol 1.5 μM, AZA 10 μM, alone or combined, five breast cell lines, vs vehicle control
Protocol: Cell viability was measured by MTT assay.
(§1) Human breast cell lines were obtained from American Type Culture Collection (Rockville, Md.) and propagated as described 17. For pharmacological assays, 1.0×10^6 cells were seeded in 25 cm^2 tissue culture flasks.
Cell viability was measured using the Cell Titer 96 AQ-One Solution Cell Proliferation Assay kit from Promega Corporation (Madison, Wis.). Formazan absorbance was read at 490 nm in a 96-well plate reader.

[2] = test system: VDR variants; conditions: after treatment; for levels of V1 and V2 VDR variants (active transcripts): all the breast cell lines
Source text: The V1d primers, spanning exon 1d and the junction of exon 1c and exon 2, were designed to recognize the transcript variants v1d, V1d′ and v1d″ (FIG. 1). In order to detect all of these variants, the nonspecific V6 primers, spanning exon 3 and exon 4, were used.
The PCR products were separated on 2% agarose gels, scanned in a Gel Doc Imager (BioRad, Philadelphia, Pa.), and quantified using Image Quant software (BioRad, Philadelphia, Pa.).

[3] = test system: VDR promoter; conditions: 96 hours, all breast cell lines
Protocol: To determine whether the VDR gene promoter was hypermethylated in breast cancer, bisulfite sequencing was performed in the region 790 bp upstream to 380 bp downstream of the VDR transcription start site after treatment of cells in the presence or absence of AZA for ninety six hours (see FIG. 3).
PCR products were separated electrophoretically and isolated using a PCR purification kit (Qiagen, Valencia, Calif.). DNA was sequenced using the M13 Reverse Primer with an Applied Biosystems automated fluorescent sequencer according to the manufacturer's instructions. Percent DNA methylation was determined using the ratio of cytidine to thymidine traces at CpG dinucleotides.

[4] = test system: VDR mRNA; conditions: placental carcinoma cell lines; Pospechova et al. 2009; cited from earlier work
[5] = test system: VDRE containing genes; experiment: Expression of VDRE-containing genes after treatment in vitro; format: cell-based, human
Protocol: FIGS. 6A-6C show expression levels of VDR Response Element (VDRE)-containing genes in primary breast cancer and normal breast tissue. […] Assays were performed in triplicate on a total of 8 breast cancers and 3 normal organoid preparations. […] Means and standard deviations are shown. Significant differences between normal and cancer are indicated (* p<0.05; ** p<0.01). […] The bars represent the fold induction of VDR downstream gene targets (CYP3A4[24/25OH]-white, CYP27B1[1OH]-grey, and C/EBP-hatched) over untreated control (horizontal line=1.0). Means and standard deviations of triplicate experiments are shown (* p<0.05; ** p<0.01).

[6] = test system: VDR; experiment: Quantitative Real-Time PCR of total VDR expression in breast cell lines; conditions: 96 hours, V primer set
Protocol: as §1
PCR was then performed for 40 cycles using gene-specific primers. To determine total VDR levels, pre-mixed “Assay on Demand” primer-probe sets for VDR (Hs01045843_m1) and GAPDH (Hs99999905_m1) and the GeneAmp® Fast PCR Master Mix were purchased from Applied Biosystems (Foster City, Calif.) and cDNA was amplified following the manufacturer's instructions in the ABI PRISM 7900HT instrument.

Molecule	cell viability / growth inhibition [1]	levels of V1 and V2 VDR variants (active transcripts) [2]	levels of V1 and V2 VDR variants (active transcripts) ([2]; listed as 5′ dAZA)	V1d and V1d′ VDR variants, response to demethylation ([2]; breast cell lines)	methylation of the CpG islands in the VDR promoter [3]	methylation of the CpG islands in the VDR promoter ([3]; listed as 5′ dAZA)	VDR mRNA expression [4]	expression of VDRE containing genes [5]	overall expression level of VDR (total VDR transcripts) [6]	cell viability / growth inhibition ([1]; listed as VTD)
5′ deoxy-azacytidine	restoration of sensitivity	significantly increased; also recorded: induced the re-expression	restored	less responsive	induced demethylation	demethylated	re-expression	concurrent increase	parallel increase	
C=C1/C(=C\C=C2/CCC[C@]3(C)[C@@H]([C@H](C)CCCC(C)(C)O)CC[C@@H]23)C[C@@H](O)C[C@@H]1O [Calcitriol, 1,25-dihydroxyvitamin D3]	minimal effects; also recorded: insensitivity									ineffective
